Structures can show the parent of a compound that is named as a salt.
Columns and labels:
[1] = molecular target: T1, human B1R receptor (bradykinin 1 receptor) (Homo sapiens, UniProt P46663); experiment: FLIPR Ca2+ assay (Fluo-4) on CHO K1 cells stably transfected with the human B1R gene; % activation and % inhibition at 10 μM; format: cell-based; details: CHO K1 hB1R cells, Ca2+ inflow after 0.5 nM Lys-Des-Arg9-bradykinin; for inhibition at 10 µM: CHO-K1, test substance 10 μM, read-out: B1R antagonism, human [10 μM] % inhibition
T1 construct: host or cells: CHO K1 cells (hB1R cells)
T1 sequence (P46663 1-353): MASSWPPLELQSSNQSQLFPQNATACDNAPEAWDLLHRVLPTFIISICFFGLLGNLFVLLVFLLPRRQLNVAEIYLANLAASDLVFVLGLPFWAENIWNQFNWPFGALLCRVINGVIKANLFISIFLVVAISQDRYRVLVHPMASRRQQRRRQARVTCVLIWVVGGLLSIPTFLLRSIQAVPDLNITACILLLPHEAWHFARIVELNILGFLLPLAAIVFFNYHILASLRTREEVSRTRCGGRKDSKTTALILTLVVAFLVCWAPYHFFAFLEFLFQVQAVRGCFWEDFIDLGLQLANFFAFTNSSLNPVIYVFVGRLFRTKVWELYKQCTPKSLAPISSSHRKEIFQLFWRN
In short: (§1)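 CHO K1 cells stably expressing human or rat B1R, Fluo-4 loaded, read by FLIPR (peak fluorescence). Compound at 10 µM first gives % activation versus agonist; after 10 min, agonist (human: 0.5 nM Lys-Des-Arg9-bradykinin; rat: 100 nM Des-Arg9-bradykinin) gives % inhibition relative to maximal inhibition.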

[2] = molecular target: T2, B1R receptor of the rat (bradykinin 1 receptor) (Rattus norvegicus, UniProt P97583); experiment: FLIPR Ca2+ assay (Fluo-4) on CHO K1 cells stably transfected with the B1R gene of the rat; % activation and % inhibition at 10 μM; format: cell-based; details: CHO K1 rB1R cells, Ca2+ inflow after 100 nM Des-Arg9-bradykinin; for inhibition at 10 µM: CHO-K1, test substance 10 μM, read-out: B1R antagonism, rat [10 μM] % inhibition
T2 construct: host or cells: CHO K1 cells (rB1R cells)
T2 sequence (P97583 1-337): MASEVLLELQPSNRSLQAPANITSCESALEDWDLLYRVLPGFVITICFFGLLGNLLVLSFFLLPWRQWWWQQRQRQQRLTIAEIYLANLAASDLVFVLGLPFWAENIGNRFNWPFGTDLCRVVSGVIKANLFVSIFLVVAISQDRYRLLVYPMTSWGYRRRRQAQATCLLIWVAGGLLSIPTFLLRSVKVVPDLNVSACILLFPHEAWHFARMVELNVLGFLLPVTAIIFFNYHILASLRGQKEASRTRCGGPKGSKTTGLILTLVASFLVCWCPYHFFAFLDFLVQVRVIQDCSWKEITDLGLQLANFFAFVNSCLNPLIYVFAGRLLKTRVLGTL
In short: as §1

Structure (SMILES) | inhibition at 10 µM [1] [%] | inhibition at 10 µM [2] [%] | B1R antagonism, human [10 μM] % inhibition ([1]; test substance 10 μM) [%] | B1R antagonism, rat [10 μM] % inhibition ([2]; test substance 10 μM) [%]
Cc1cc(S(=O)(=O)N2CCCCC2CCC(=O)N2CCC(O)(c3ccccn3)CC2)c(C)cc1Cl (stereo not shown) [Example 119, 3-(1-(4-chloro-2,5-dimethylphenylsulfonyl)piperidin-2-yl)-1-(4-hydroxy-4-(pyridin-2-yl)piperidin-1-yl)propan-1-one] | 82.6 | 22.4 | – | –
Cc1cc(S(=O)(=O)N2CCCCC2CCC(=O)N2CCC(O)(c3cccc(F)c3)CC2)c(C)cc1Cl (stereo not shown) [Example 120, 3-(1-(4-chloro-2,5-dimethylphenylsulfonyl)piperidin-2-yl)-1-(4-(3-fluorophenyl)-4-hydroxypiperidin-1-yl)propan-1-one] | 58.4 | 45.9 | – | –
COc1cc(C)c(S(=O)(=O)N(C)CCCCC(=O)N2CCC(O)(c3cccnc3)CC2)c(C)c1 [Example 121, N-(5-(4-hydroxy-4-(pyridin-3-yl)piperidin-1-yl)-5-oxopentyl)-4-methoxy-N,2,6-trimethylphenylsulfonamide] | 100 | 57.1 | – | –
Cc1cc(S(=O)(=O)N2CCCCC2CCC(=O)N2CCC(O)(c3cccnc3)CC2)c(C)cc1Cl (stereo not shown) [Example 122, 3-(1-(4-chloro-2,5-dimethylphenylsulfonyl)piperidin-2-yl)-1-(4-hydroxy-4-(pyridin-3-yl)piperidin-1-yl)propan-1-one] | – | – | 98.39 | 97.87
O=C(CCC1CCCCN1S(=O)(=O)c1cccc(C(F)(F)F)c1)N1CCC(O)(c2ccc(Br)cc2)CC1 (stereo not shown) [Example 123, 1-(4-(4-bromophenyl)-4-hydroxypiperidin-1-yl)-3-(1-(3-(trifluoromethyl)phenylsulfonyl)piperidin-2-yl)propan-1-one] | 47.9 | 54.7 | – | –
CN(c1ccccc1CCC(=O)N1CCC(O)(c2ccc(Cl)c(C(F)(F)F)c2)CC1)S(=O)(=O)c1ccc(Cl)c(Cl)c1 [Example 124, 3,4-dichloro-N-(2-(3-(4-(4-chloro-3-(trifluoromethyl)phenyl)-4-hydroxypiperidin-1-yl)-3-oxopropyl)phenyl)-N-methylphenylsulfonamide] | 41 | 61.6 | – | –
CN(c1ccccc1CCC(=O)N1CCC(O)(c2cccnc2)CC1)S(=O)(=O)c1ccc(Cl)c(Cl)c1 [Example 125, 3,4-dichloro-N-(2-(3-(4-hydroxy-4-(pyridin-3-yl)piperidin-1-yl)-3-oxopropyl)phenyl)-N-methylphenylsulfonamide] | 93.2 | 91.4 | – | –
COc1cc(C)c(S(=O)(=O)N2CCCCC2COCC(=O)N2CCC(O)(c3cccnc3)CC2)c(C)c1 (stereo not shown) [Example 127, 1-(4-hydroxy-4-(pyridin-3-yl)piperidin-1-yl)-2-((1-(4-methoxy-2,6-dimethylphenylsulfonyl)piperidin-2-yl)methoxy)ethanone] | 104 | 101 | – | –
COc1cc(C)c(S(=O)(=O)N2Cc3ccccc3C[C@H]2COCC(=O)N2CCC(O)(c3cccnc3)CC2)c(C)c1 [Example 128, (S)-1-(4-hydroxy-4-(pyridin-3-yl)piperidin-1-yl)-2-((2-(4-methoxy-2,6-dimethylphenylsulfonyl)-1,2,3,4-tetrahydroisoquinolin-3-yl)methoxy)ethanone] | 101 | 98.8 | – | –
O=C(COC[C@@H]1Cc2ccccc2CN1S(=O)(=O)c1ccc(Cl)cc1Cl)N1CCC(O)(c2cccnc2)CC1 [Example 129, (S)-2-((2-(2,4-dichlorophenylsulfonyl)-1,2,3,4-tetrahydroisoquinolin-3-yl)methoxy)-1-(4-hydroxy-4-(pyridin-3-yl)piperidin-1-yl)ethanone] | 103 | 97.3 | – | –
COc1cc(C)c(S(=O)(=O)N(CCOCC(=O)N2CCC(O)(c3cccnc3)CC2)Cc2ccccc2)c(C)c1 [Example 130, N-benzyl-N-(2-(2-(4-hydroxy-4-(pyridin-3-yl)piperidin-1-yl)-2-oxoethoxy)ethyl)-4-methoxy-2,6-dimethylphenylsulfonamide] | 103 | 98.6 | – | –
O=C(COCC1Cc2ccccc2CN1S(=O)(=O)c1ccc(Cl)cc1Cl)N1CCC(O)(c2cccnc2)CC1 (stereo not shown) [Example 131, 2-((2-(2,4-dichlorophenylsulfonyl)-1,2,3,4-tetrahydroisoquinolin-3-yl)methoxy)-1-(4-hydroxy-4-(pyridin-3-yl)piperidin-1-yl)ethanone hydrochloride] | 102 | 100 | – | –
COc1cc(C)c(S(=O)(=O)N(C)CCOCC(=O)N2CCC(O)(c3cccc(C(F)(F)F)c3)CC2)c(C)c1 [Example 132, N-(2-(2-(4-hydroxy-4-(3-(trifluoromethyl)phenyl)piperidin-1-yl)-2-oxoethoxy)ethyl)-4-methoxy-N,2,6-trimethylphenylsulfonamide] | 101 | 99.1 | – | –
COc1cc(C)c(S(=O)(=O)N(C)CCOCCC(=O)N2CCC(O)(c3cccnc3)CC2)c(C)c1 [Example 133, N-(2-(3-(4-hydroxy-4-(pyridin-3-yl)piperidin-1-yl)-3-oxopropoxy)ethyl)-4-methoxy-N,2,6-trimethylphenylsulfonamide] | 84.1 | 96.1 | – | –
COc1ccc(S(=O)(=O)N2Cc3ccccc3C[C@H]2COCC(=O)N2CCC(O)(c3cccnc3)CC2)cc1 [Example 134, (S)-1-(4-hydroxy-4-(pyridin-3-yl)piperidin-1-yl)-2-((2-(4-methoxyphenylsulfonyl)-1,2,3,4-tetrahydroisoquinolin-3-yl)methoxy)ethanone] | 66 | 29.1 | – | –
O=C(COCC1Cc2ccccc2N1S(=O)(=O)c1ccc(Cl)cc1Cl)N1CCC(O)(c2cccnc2)CC1 (stereo not shown) [Example 135, 2-((1-(2,4-dichlorophenylsulfonyl)indolin-2-yl)methoxy)-1-(4-hydroxy-4-(pyridin-3-yl)piperidin-1-yl)ethanone] | 99.8 | 100 | – | –
COc1cc(C)c(S(=O)(=O)N(C)CCOCC(=O)N2CCC(O)(c3ccc(Cl)cc3)CC2)c(C)c1 [Example 136, N-(2-(2-(4-(4-chlorophenyl)-4-hydroxypiperidin-1-yl)-2-oxoethoxy)ethyl)-4-methoxy-N,2,6-trimethylphenylsulfonamide] | 93.6 | 95.3 | – | –
COc1cc(C)c(S(=O)(=O)N(C)CCOCC(=O)N2CCC(O)(c3ccccc3)CC2)c(C)c1 [Example 137, N-(2-(2-(4-hydroxy-4-phenylpiperidin-1-yl)-2-oxoethoxy)ethyl)-4-methoxy-N,2,6-trimethylphenylsulfonamide] | 101 | 99.3 | – | –
COc1cc(C)c(S(=O)(=O)N2CCCCC2COCC(=O)N2CCC(O)(c3ccccn3)CC2)c(C)c1 (stereo not shown) [Example 138, 1-(4-hydroxy-4-(pyridin-2-yl)piperidin-1-yl)-2-((1-(4-methoxy-2,6-dimethylphenylsulfonyl)piperidin-2-yl)methoxy)ethanone] | 102 | 99.6 | – | –
COc1cc(C)c(S(=O)(=O)N(CCOCC(=O)N2CCC(O)(c3cccnc3)CC2)C2CC2)c(C)c1 [Example 139, N-cyclopropyl-N-(2-(2-(4-hydroxy-4-(pyridin-3-yl)piperidin-1-yl)-2-oxoethoxy)ethyl)-4-methoxy-2,6-dimethylphenylsulfonamide] | 104 | 101 | – | –

From patent US8580965B2, “Substituted sulfonamide compounds” (Gruenenthal GmbH, priority 2006, dated 2013)
